Results taken from ChEMBL document CHEMBL3826968, “Glycine Transporter 1 Inhibitors and the Promise of a New Schizophrenia Therapy” (ACS Med Chem Lett, 2016).

Each molecule was assayed against T1, Sodium- and chloride-dependent glycine transporter 1 (Homo sapiens, UniProt P48067) (assay: Displacement of [3H](R)-NPTS or [3H]N-methyl-SSR504734 from recombinant human glycine transporter type-1 isoform C expressed in CHO cell membrane incubated for 1 hr by liquid scintillation spectrometry).
T1 sequence (P48067 whole entry): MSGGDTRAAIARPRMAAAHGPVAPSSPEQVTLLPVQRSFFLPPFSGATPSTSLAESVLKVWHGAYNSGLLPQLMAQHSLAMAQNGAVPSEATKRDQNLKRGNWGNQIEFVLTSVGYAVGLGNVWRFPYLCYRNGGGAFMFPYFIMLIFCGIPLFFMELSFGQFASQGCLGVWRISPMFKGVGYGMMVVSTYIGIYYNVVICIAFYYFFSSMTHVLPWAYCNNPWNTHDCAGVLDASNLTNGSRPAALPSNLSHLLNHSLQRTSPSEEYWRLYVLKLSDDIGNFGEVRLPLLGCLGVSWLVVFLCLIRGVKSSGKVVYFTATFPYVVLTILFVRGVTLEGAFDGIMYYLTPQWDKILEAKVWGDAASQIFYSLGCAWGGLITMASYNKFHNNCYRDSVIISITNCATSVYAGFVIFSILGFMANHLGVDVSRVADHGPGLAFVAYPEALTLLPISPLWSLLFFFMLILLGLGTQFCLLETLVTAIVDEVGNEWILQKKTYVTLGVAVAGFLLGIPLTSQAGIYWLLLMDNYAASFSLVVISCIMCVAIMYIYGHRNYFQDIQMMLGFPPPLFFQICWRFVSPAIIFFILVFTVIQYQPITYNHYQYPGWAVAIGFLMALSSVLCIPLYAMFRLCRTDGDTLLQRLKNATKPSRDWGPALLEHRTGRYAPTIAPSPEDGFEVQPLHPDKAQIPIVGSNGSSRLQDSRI
Format: cell membranes
`Cn1cc(S(=O)(=O)N2CC(c3ccc(F)cc3)C(c3cccc(C(F)(F)F)c3)=N2)nn1` (stereo not drawn) was tested, and the Ki was no more than 10 µM.
In the case of `Cn1cc(S(=O)(=O)N2CC(c3ccccc3)C(c3ccccn3)=N2)cn1` (stereo not drawn), the Ki is reported as no less than 10 µM.
Work on `Cn1cnc(S(=O)(=O)N2CC(c3ccc(Cl)cc3)C(c3ccccc3)=N2)c1` (stereo not drawn) yielded a Ki of no more than 1 µM.
